Laboratory results: patent US9724351B2, “Compounds for the treatment of paramoxyvirus viral infections” (priority 2012, dated 2017)

Legend:
[1] = Cytotoxicity Determination; format: cell-based; settings: human, HEp-2 cells, without addition of virus, CCK-8 readout, bins (Table 4: greater than 100 μM; Table 5: equal to or less than 100 μM and greater than 10 μM), read-out: 50% cytotoxicity concentration (CC50)
Description: In order to determine the compound cytotoxicity, in parallel, each of the compounds is applied to duplicate wells in a 384-well cell plate at serial final concentrations starting from 100 μM using ½ stepwise dilutions for 7 points without addition of virus. Incubate the cells at 37° C., 5% CO2 for 5 days. Add 6 μl CCK-8 into each well and incubate in a CO2 incubator at 37° C. for 3-4 hours. Read the plates to obtain the optical densities which are used to calculate 50% cytotoxicity concentration (CC50).

[2] = test system: Respiratory Syncytial Virus (RSV) long strain (ATCC#VR-26); experiment: RSV Antiviral Assay (CPE reduction assay); format: cell-based; settings: human respiratory syncytial virus, 120 h; HEp-2 cells infected with RSV long strain, 5 days, CCK-8 readout; bins (Table 2: less than 1 μM; Table 3: equal to or higher than 1 μM and less than 50 μM); read-out: 50% effective concentration (EC50)
Description: CPE reduction assays are performed as described by Sidwell and Huffman et al., Appl. Microbiol. (1971) 22(5):797-801 with slight modifications. HEp-2 cells (ATCC#, CCL-23) are seeded at a density of 1,500 cells/30 μl/well into the 384-well cell plate(s) (Corning#3701) one day prior to the assay. Compounds are added into 384-well cell plates by Labcyte POD 810 Plate Assembler system. Each of the test compounds is provided to duplicate wells of a 384-well cell plate at final concentrations starting from 100 μM or 1 μM using ⅓ stepwise dilutions for 9 points. Quick-thaw Respiratory Syncytial Virus (RSV) long strain (ATCC#VR-26) stock in a 37° C. water bath. Place on ice until ready to use. Viruses are diluted to the concentration of 100 TCID50/30 μl with medium and 30 μl diluted RSV are added into related wells of 384-well cell plates. For each plate, sixteen wells are set aside as uninfected, untreated cell controls (CC), and nine wells per test plate receive virus only as a control for virus replication (VC). The final DMSO concentration of all wells is 1%. Place the plates at 37° C., 5% CO2 for 5 days.
After 5 days incubation, observe the CPE of cells in all wells. […] Six μl of cell counting kit-8 reagent (CCK-8, Dojindo Molecular Technologies Inc., CK04-20) are added to each well, which allows colorimetric assays to determine the number of viable cells through the dehydrogenase activity detection. After 3-4 hour incubation, the absorbance of each well is measured with a spectrophotometric plate reader at 450 nm wavelength, using a 630 nm filter as background according to manufacturer's instruction. The 50% effective concentration (EC50) is calculated by using regression analysis, based on the mean O.D. at each concentration of compound.

**Q.** Which results are given for `COc1ccc(C(=O)NCC(=O)N/N=C(/c2ccccc2)c2ccc(F)cc2)cc1OC` [Compound 430]?
**A.** CC50 at 5 days [1]: > 100 µM; EC50 [2]: 1 to 50 µM

**Q.** With `C=C(C)/C(=N\NC(=O)CNC(=O)c1ccc(OC)c(OC)c1)c1csc2ccccc12` [Compound 434] as the compound, how does the CC50 at 5 days [1] read?
**A.** > 100 µM

**Q.** What about the EC50 [2] of the same compound?
**A.** 1 to 50 µM

**Q.** Which CC50 at 5 days [1] does the source give for `COc1ccc(C(=O)NCC(=O)N/N=C2\CCCc3sccc32)cc1OC` [Compound 436] here?
**A.** > 100 µM

**Q.** What about the EC50 [2] of the same compound?
**A.** 1 to 50 µM

**Q.** For `COc1ccc(C(=O)NCC(=O)N/N=C(\C)c2cc(C)sc2C)cc1OC` [Compound 438], which CC50 at 5 days [1] is on record?
**A.** > 100 µM

**Q.** What about the EC50 [2] of the same compound?
**A.** 1 to 50 µM

**Q.** Which results are given for `COc1ccc(C(=O)NCC(=O)N/N=C(\C)c2coc3ccccc23)cc1OC` [Compound 439]?
**A.** CC50 at 5 days [1]: > 100 µM; EC50 [2]: 1 to 50 µM

**Q.** What does the source list for `COc1ccc(C(=O)NCC(=O)NN=C(c2ccccc2)c2ccccc2)cc1OC` [Compound 440]?
**A.** CC50 at 5 days [1]: > 100 µM; EC50 [2]: 1 to 50 µM

**Q.** With `COc1ccc(C(=O)NCC(=O)NN=C(c2ccccn2)c2ccccn2)cc1OC` [Compound 441] as the compound, how does the CC50 at 5 days [1] read?
**A.** > 100 µM

**Q.** What about the EC50 [2] of the same compound?
**A.** 1 to 50 µM

**Q.** With `COc1ccc(C(=O)NCC(=O)N/N=C(\CO)c2csc3ccccc23)cc1OC` [Compound 442] as the compound, how does the CC50 at 5 days [1] read?
**A.** > 100 µM

**Q.** And the EC50 [2]?
**A.** 1 to 50 µM

**Q.** With `COC/C(=N\NC(=O)CNC(=O)c1ccc(OC)c(OC)c1)c1csc2ccccc12` [Compound 443] as the compound, how does the CC50 at 5 days [1] read?
**A.** > 100 µM

**Q.** What about the EC50 [2] of the same compound?
**A.** 1 to 50 µM

**Q.** Which CC50 at 5 days [1] does the source give for `COc1ccc(C(=O)NCC(=O)N/N=C(\CF)c2csc3ccccc23)cc1OC` [Compound 444] here?
**A.** > 100 µM

**Q.** What about the EC50 [2] of the same compound?
**A.** 1 to 50 µM

**Q.** Which CC50 at 5 days [1] does the source give for `COc1ccc(C(=O)NCC(=O)N/N=C(/c2csc3ccccc23)C(F)F)cc1OC` [Compound 445] here?
**A.** > 100 µM

**Q.** And the EC50 [2]?
**A.** 1 to 50 µM

**Q.** Which results are given for `COc1ccc(C(=O)NCC(=O)N/N=C2\CCCc3sc4ccccc4c32)cc1OC` [Compound 446]?
**A.** CC50 at 5 days [1]: > 100 µM; EC50 [2]: < 1 µM

**Q.** Which results are given for `COc1ccc(C(=O)NCC(=O)N/N=C2\CCNc3ccccc32)cc1OC` [Compound 447]?
**A.** CC50 at 5 days [1]: > 100 µM; EC50 [2]: 1 to 50 µM

**Q.** Which CC50 at 5 days [1] does the source give for `CCCCC/C(=N\NC(=O)CNC(=O)c1ccc(OC)c(OC)c1)c1csc2ccccc12` [Compound 448A] here?
**A.** 10 to 100 µM

**Q.** And the EC50 [2]?
**A.** 1 to 50 µM

**Q.** With `COc1ccc(C(=O)NCC(=O)N/N=C(\C)c2ccnc3ccccc23)cc1OC` [Compound 449] as the compound, how does the CC50 at 5 days [1] read?
**A.** > 100 µM

**Q.** And the EC50 [2]?
**A.** 1 to 50 µM

**Q.** With `COc1cccc(/C(=N/NC(=O)CNC(=O)c2ccc(OC)c(OC)c2)C(F)(F)F)c1` [Compound 450] as the compound, how does the CC50 at 5 days [1] read?
**A.** > 100 µM

**Q.** And the EC50 [2]?
**A.** 1 to 50 µM

**Q.** For `COc1ccc(C(=O)NCC(=O)N/N=C2\CCSc3ccccc32)cc1OC` [Compound 451], which CC50 at 5 days [1] is on record?
**A.** > 100 µM

**Q.** And the EC50 [2]?
**A.** 1 to 50 µM

**Q.** What does the source list for `COc1ccc(C(=O)NCC(=O)N/N=C2\CCOc3ccccc32)cc1OC` [Compound 452]?
**A.** CC50 at 5 days [1]: > 100 µM; EC50 [2]: 1 to 50 µM

**Q.** What does the source list for `CCCCCC/C(=N\NC(=O)CNC(=O)c1ccc(OC)c(OC)c1)c1csc2ccccc12` [Compound 453]?
**A.** CC50 at 5 days [1]: 10 to 100 µM; EC50 [2]: 1 to 50 µM

**Q.** For `COc1ccc(C(=O)NCC(=O)N/N=C(\C#N)c2ccccc2)cc1OC` [Compound 454], which CC50 at 5 days [1] is on record?
**A.** > 100 µM

**Q.** And the EC50 [2]?
**A.** 1 to 50 µM

**Q.** With `COc1ccc(C(=O)NCC(=O)N/N=C(\CCC(C)C)c2csc3ccccc23)cc1OC` [Compound 455A] as the compound, how does the CC50 at 5 days [1] read?
**A.** > 100 µM

**Q.** And the EC50 [2]?
**A.** < 1 µM

**Q.** For `COc1ccc(C(=O)NCC(=O)N/N=C(\CC#N)c2csc3ccccc23)cc1OC` [Compound 456], which CC50 at 5 days [1] is on record?
**A.** > 100 µM

**Q.** What about the EC50 [2] of the same compound?
**A.** 1 to 50 µM

**Q.** For `CCOc1ccc(C(=O)NCC(=O)N/N=C(\C)c2csc3ccccc23)cc1OCC` [Compound 457], which CC50 at 5 days [1] is on record?
**A.** 10 to 100 µM

**Q.** And the EC50 [2]?
**A.** < 1 µM

**Q.** For `C=CCC/C(=N\NC(=O)CNC(=O)c1ccc(OCC)c(OC)c1)c1csc2ccccc12` [Compound 458A], which CC50 at 5 days [1] is on record?
**A.** 10 to 100 µM

**Q.** What about the EC50 [2] of the same compound?
**A.** < 1 µM

**Q.** With `CCOc1ccc(C(=O)NCC(=O)N/N=C(\CCc2ccccc2)c2csc3ccccc23)cc1OC` [Compound 459] as the compound, how does the CC50 at 5 days [1] read?
**A.** > 100 µM

**Q.** What about the EC50 [2] of the same compound?
**A.** < 1 µM

**Q.** For `CCOc1ccc(C(=O)NCC(=O)N/N=C(\CC2CCCCC2)c2csc3ccccc23)cc1OC` [Compound 460], which CC50 at 5 days [1] is on record?
**A.** > 100 µM

**Q.** And the EC50 [2]?
**A.** < 1 µM

**Q.** Which results are given for `CCOc1ccc(C(=O)NCC(=O)N/N=C(\C)c2csc3c(F)cccc23)cc1OC` [Compound 461]?
**A.** CC50 at 5 days [1]: 10 to 100 µM; EC50 [2]: < 1 µM
